Source: patent US20100168176A1, “NOVEL COMPOUNDS, PHARMACEUTICAL COMPOSITIONS CONTAINING SAME, AND METHODS OF USE FOR SAME” (FASGEN LLC, priority 2006, published 2010)
Converted amounts (≈) assume the structure as drawn.

Experiments:
[1] = system: MCF-7 human breast cancer cells; test: [14C]acetate incorporation into total lipids; type: cell-based; conditions: MCF7
Protocol: Measurement of [^14 C]acetate Incorporation into Total Lipids and Determination of IC50 of Compounds
This assay measures the incorporation of [^14C]acetate into total lipids and is a measure of fatty acid synthesis pathway activity in vitro. It is utilized to measure inhibition of fatty acid synthesis in vitro.
MCF-7 human breast cancer cells cultured as above, are plated at 5×10^4 cells per well in 24-well plates. Following overnight incubation, the compounds to be tested, solubilized in DMSO, are added at 5, 10, and 20 μg/ml in triplicate, with lower concentrations tested if necessary. DMSO is added to triplicate wells for a vehicle control. C75 is run at 5 and 10 μg/ml in triplicate as positive controls. After 4 hours of incubation, 0.25 μCi of [^14C]acetate (10 μl volume) is added to each well.
After 2 hours of additional incubation, medium is aspirated from the wells and 800 μl of chloroform:methanol (2:1) and 700 μl of 4 mM MgCl2 is added to each well. Contents of each well are transferred to 1.5 Eppendorf tubes, and spun at full-speed for 2 minutes in a high-speed Eppendorf Microcentrifuge 5415D. After removal of the aqueous (upper) layer, an additional 700 μl of chloroform:methanol (2:1) and 500 μl of 4 mM MgCl2 are added to each tube and then centrifuged for 1 minutes as above. The aqueous layer is removed with a Pasteur pipette and discarded. An additional 400 μl of chloroform:methanol (2:1) and 200 μl of 4 mM MgCl2 are added to each tube, then centrifuged and aqueous layer is discarded. The lower (organic) phase is transferred into a scintillation vial and dried at 40° C. under N2 gas. Once dried, 3 ml of scintillant (APB #NBC5104) is added and vials are counted for ^14C. The Beckman Scintillation counter calculates the average cpm values for triplicates.
The IC50 for the compounds is defined as the concentration of drug leading to a 50% reduction in [^14C]acetate incorporation into lipids compared to controls. This is determined by plotting the average cpm for each inhibitor concentration tested, performing linear regression and computing the best-fit line, r^2 values, and 95% confidence intervals. The average cpm values are computed by the Beckman scintillation counter (Model LS6500) for each compound concentration. Computation of linear regression, best-fit line, r^2, and 95% confidence intervals are calculated using Prism Version 3.0 (Graph Pad Software).

FAO = FAO SC 150 / FAO Max; conditions: for FAO Max: at the concentration given under E18
H = test: Crystal violet cell growth assay, H; type: cell-based; conditions: read-out: Cr. Violet (IC50)
Protocol: Crystal Violet Cell Growth Assay
The crystal violet assay measure cell growth but not cytotoxicity. This assay employs crystal violet staining of fixed cells in 96-well plates with subsequent solubilization and measurement of OD490 on a spectrophotometer. The OD490 corresponds to cell growth per unit time measured. Cells are treated with the compounds of interest or vehicle controls and IC50 for each compound is computed.
To measure the cytotoxicity of specific compounds against cancer cells, 5×10^4 MCF-7 human breast cancer cells, obtained from the American Type Culture Collection are plated per well in 24 well plates in DMEM medium with 10% fetal bovine serum, penicillin, and streptomycin. Following overnight culture at 37° C. and 5% CO2, the compounds to be tested, dissolved in DMSO, are added to the wells in 1 μl volume at the following concentrations: 50, 40, 30, 20, and 10 μg/ml in triplicate. Additional concentrations are tested if required. 1 μl of DMSO is added to triplicate wells are the vehicle control. C75 is run at 10, and 5 μg/ml in triplicate as positive controls.
After 72 hours of incubation, cells are stained with 0.5 ml of Crystal Violet stain (0.5% in 25% methanol) in each well. After 10 minutes, wells are rinsed, air dried, and then solubilized with 0.5 ml 10% sodium dodecylsulfate with shaking for 2 hours. Following transfer of 100 μl from each well to a 96-well plate, plates are read at OD490 on a Molecular Devices SpectraMax Plus Spectrophotometer Average OD490 values are computed using SOFTmax Pro Software (Molecular Devices) and IC50 values are determined by linear regression analysis using Prism version 3.02 (Graph Pad Software, San Diego).

[2] = system: MCF-7 human breast cancer cells; test: XTT cytotoxicity assay, MCF-7 (M); type: cell-based; conditions: Homo sapiens, MCF7; (M) or no code; MCF-7, 72 hours
Protocol: The XTT assay is a non-radioactive alternative for the [^51Cr] release cytotoxicity assay. XTT is a tetrazolium salt that is reduced to a formazan dye only by metabolically active, viable cells. The reduction of XTT is measured spectrophotometrically as OD490-OD650.
To measure the cytotoxicity of specific compounds against cancer cells, 9×10^3 MCF-7 human breast cancer cells, obtained from the American Type Culture Collection are plated per well in 96 well plates in DMEM medium with 10% fetal bovine serum, insulin, penicillin, and streptomycin. Following overnight culture at 37° C. and 5% CO2, the compounds to be tested, dissolved in DMSO, are added to the wells in 1 μl volume at the following concentrations: 80, 40, 20, 10, 5, 2.5, 1.25, and 0.625 μg/ml in triplicate. Additional concentrations are tested if required. 1 μl of DMSO is added to triplicate wells are the vehicle control. C75 is run at 40, 20, 10, […], 10, and 5 in triplicate as positive controls.
After 72 hours of incubation, cells are incubated for 4 hours with the XTT reagent as per manufacturer's instructions (Cell Proliferation Kit II (XTT) Roche). Plates are read at OD490 and OD650 on a Molecular Devices SpectraMax Plus Spectrophotometer. Three wells containing the XTT reagent without cells serve as the plate blank. XTT data are reported as OD490-OD650. Averages and standard error of the mean are computed using SOFTmax Pro software ([…]).
The IC50 for the compounds is defined as the concentration of drug leading to a 50% reduction in OD400-OD650 compared to controls. The OD400-OD650 are computed by the SOFTmax PRO software (Molecular Devices) for each compound concentration. IC50 is calculated by linear regression, plotting the FAS activity as percent of control versus drug concentrations. Linear regression, best-fit line, r^2, and 95% confidence intervals are determined using Prism Version 3.0 (Graph Pad Software).

OV = test: XTT cytotoxicity assay, OV; type: cell-based

| IC50 [1] | Structure (SMILES) | FAO Max: concentration at which the maximum was seen (FAO) | FAO SC 150 (FAO) | FAO Max (FAO) | IC50 (H) | IC50 [2] | IC50 (OV) |
| --- | --- | --- | --- | --- | --- | --- | --- |
| > 80 µg/mL | CCCCCCCCC1(C)SC(=O)C=C1OCC(=O)NNc1nc2ccccc2s1 (single isomer, unassigned) [Compound 17, (5-Methyl-5-octyl-2-oxo-thiophen-4-yloxy)-acetic-acid-N′-(2-benzothiazole)-hydrazide] | 6.25 µg/mL | 4.9 µg/mL | 167% @ | 17.8 µg/mL (≈ 39.8 µM) | 74 µg/mL (≈ 165 µM) | 38.7 µg/mL (≈ 86.5 µM) |
| 7.2 µg/mL (≈ 18.4 µM) | CCCCCCCCC1(C)SC(=O)C=C1OCC(=O)NNc1ccccc1 (stereo not drawn) [Compound 10, (5-Methyl-5-octyl-2-oxo-thiophen-4-yloxy)-acetic-acid-N′-phenylhydrazide] | 6.25 µg/mL | Neg | 126% at | 8.4 µg/mL (≈ 21.5 µM) | 6.9 µg/mL (≈ 17.7 µM) | 13.2 µg/mL (≈ 33.8 µM) |
| 12 µg/mL (≈ 29.7 µM) | CCCCCCCCC1(C)SC(=O)C=C1OCC(=O)NNc1cccc(C)c1 (stereo not drawn) [Compound 11, (5-Methyl-5-octyl-2-oxo-thiophen-4-yloxy)-acetic-acid-N′-(3-methylphenyl)-hydrazide] | 1.56 µg/mL | Neg | 116% @ | 21.9 µg/mL (≈ 54.1 µM) | 9 µg/mL (≈ 22.2 µM) | 10.1 µg/mL (≈ 25 µM) |
| 21.3 µg/mL (≈ 50.6 µM) | CCCCCCCCC1(C)SC(=O)C=C1OCC(=O)NNc1ccc(OC)cc1 (stereo not drawn) [Compound 13, (5-Methyl-5-octyl-2-oxo-thiophen-4-yloxy)-acetic-acid-N′-(4-methoxyphenyl)-hydrazide] | 0.098 μg/ml ug/ml | Neg | 103% at | 12.3 µg/mL (≈ 29.2 µM) | 9 µg/mL (≈ 21.4 µM) | 18 µg/mL (≈ 42.8 µM) |
| 18.3 µg/mL (≈ 39.8 µM) | CCCCCCCCC1(C)SC(=O)C=C1OCC(=O)NNc1ccc(Cl)cc1Cl (stereo not drawn) [Compound 14, (5-Methyl-5-octyl-2-oxo-thiophen-4-yloxy)-acetic-acid-N′-(2,4-dichlorophenyl)-hydrazide] | 0.098 μg/ml ug/ml | Neg | 100% at | 7.3 µg/mL (≈ 15.9 µM) | 6.9 µg/mL (≈ 15 µM) | 12.8 µg/mL (≈ 27.9 µM) |
| 13.3 µg/mL (≈ 28.9 µM) | CCCCCCCCC1(C)SC(=O)C=C1OCC(=O)NNc1ccc(Cl)c(Cl)c1 (stereo not drawn) [Compound 15, (5-Methyl-5-octyl-2-oxo-thiophen-4-yloxy)-acetic-acid-N′-(3,4-dichlorophenyl)-hydrazide] | 0.395 μg/ml ug/ml | Neg | 100% at | 8.5 µg/mL (≈ 18.5 µM) | 11.4 µg/mL (≈ 24.8 µM) | 15.2 µg/mL (≈ 33.1 µM) |
